# Assay results reported in patent publication US20140243418A1, “RASAGILINE FOR PARKINSON'S DISEASE MODIFICATION” (Teva Pharmaceutical Industries, Ltd., priority 2008, published 2014).
# Values joined by “and” are separate entries in the source; they are usually repeats but may differ in a detail not shown here. Identical values can stand only once. Like-named read-outs stand apart in the source and are kept apart here.
# System: Early Stage PD patients
# Conditions: for Primary 1: rate of change in UPDRS, weeks 12-36, 1 mg/day - placebo / Secondary Endpoint: change in total UPDRS from baseline to final visit in phase I, 1 mg/day - placebo: rasagiline 1 mg/day minus placebo; for Primary 1: rate of change in UPDRS, weeks 12-36, 2 mg/day - placebo / Secondary Endpoint: change in total UPDRS from baseline to final visit in phase I, 2 mg/day - placebo: rasagiline 2 mg/day minus placebo
# Protocol: 1 mg/day rasagiline during Phase I and Phase II; • Group 2. 2 mg/day rasagiline during Phase I and Phase II; • Group 3. placebo during Phase I followed by 1 mg/day rasagiline during Phase II; and • Group 4. placebo during Phase I followed by 2 mg/day rasagiline during Phase II.
# Thus, ‘early-start’ patients receive 72 weeks of treatment with rasagiline (1 or 2 mg once daily) and ‘delayed-start’ patients receive 36 weeks of placebo followed by 36 weeks of rasagiline (1 or 2 mg once daily). […] If subjects in either treatment group required additional anti-parkinsonian medication during the placebo-controlled stage of the trial, they could proceed directly to Phase II. Once in Phase II, no additional anti-PD therapy is permitted. If the patient requires additional medication in this stage they are discontinued from the study.
# 1 mg/day rasagiline during Phase I and Phase II (1 mg early start) • 2. 2 mg/day rasagiline during Phase I and Phase II (2 mg early start) • 3. placebo during Phase I followed by 1 mg/day rasagiline during Phase II (1 mg delayed start) • 4. placebo during Phase I followed by 2 mg/day rasagiline during Phase II (2 mg delayed start)
# If, at any stage during the placebo-controlled phase the investigator determines that a subject needs additional anti-PD therapy, the subject will proceed to Phase II of the study. The investigator, aided by a questionnaire, will give careful consideration to the issue of a subject's need for additional anti-PD therapy. Scheduled in-clinic visits will be conducted at baseline and at weeks 4, 12, 24 and 36. Therefore, altogether there will be 5 scheduled visits during this phase. Unscheduled visits may be conducted at any time to assess a subject's need for additional anti-PD therapy, for safety reasons or for any other reason.
# Thus, subjects who receive 1 mg rasagiline during Phase I will continue to receive 1 mg during Phase II, subjects who receive 2 mg rasagiline during Phase I will continue to receive 2 mg during Phase II, and subjects who receive placebo during Phase I will receive either 1 mg or 2 mg rasagiline during Phase II. The study blind will be maintained. No additional anti-PD therapy will be permitted during this phase. This applies to both the subjects who enter Phase II after completing the full 36-week duration of Phase I and to subjects who are switched from Phase I to Phase II because of a need of additional anti-PD therapy. If, the investigator determines that a subject needs additional anti-PD therapy during Phase II, the subject will be prematurely withdrawn from the study. The investigator, aided by a questionnaire, will give careful consideration to the issue of a subject's need for additional anti-PD therapy. Scheduled in-clinic visits will be conducted every 6 weeks. Therefore, altogether there will be 6 visits during this phase—at weeks 42, 48, 54, 60, 66 and 72. Unscheduled visits may be conducted at any time to assess a subject's need for additional anti-PD therapy, for safety reasons or for any other reason.
# [1] = Baseline UPDRS > 25.5 (Upper Quartile)
# [2] = Baseline UPDRS ≦ 25.5 (Lower 3 Quartiles)
# [3] = rasagiline 1 mg/day, Baseline UPDRS > 25.5 (Upper Quartile)
# [4] = rasagiline 1 mg/day, Baseline UPDRS ≦ 25.5 (Lower 3 Quartiles)
# [5] = rasagiline 1 mg/day, all subjects
# [6] = rasagiline 1 mg/day, all subjects, listed as Rasagiline
# [7] = rasagiline 2 mg/day delayed-start, Baseline UPDRS > 25.5 (Upper Quartile)
# [8] = rasagiline 2 mg/day delayed-start, Baseline UPDRS ≦ 25.5 (Lower 3 Quartiles)
# [9] = rasagiline 2 mg/day delayed-start, all subjects
# [10] = rasagiline 2 mg/day early-start minus delayed-start, Baseline UPDRS > 25.5 (Upper Quartile)
# [11] = rasagiline 2 mg/day early-start minus delayed-start, Baseline UPDRS ≦ 25.5 (Lower 3 Quartiles)
# [12] = rasagiline 2 mg/day early-start, Baseline UPDRS > 25.5 (Upper Quartile)
# [13] = rasagiline 2 mg/day early-start, Baseline UPDRS ≦ 25.5 (Lower 3 Quartiles)
# [14] = rasagiline 2 mg/day early-start, all subjects
# [15] = rasagiline 2 mg/day, Baseline UPDRS > 25.5 (Upper Quartile)
# [16] = rasagiline 2 mg/day, Baseline UPDRS ≦ 25.5 (Lower 3 Quartiles)
# [17] = rasagiline 2 mg/day, all subjects
structure (smiles),measurement,setting,value
C#CCN[C@@H]1CCc2ccccc21 [rasagiline],"Primary 1: rate of change in UPDRS, weeks 12-36, 1 mg/day - placebo",[1],−0.11 UPDRS units/wk
same,"Secondary Endpoint: change in total UPDRS from baseline to final visit in phase I, 1 mg/day - placebo",[1],−6.43
same,"Primary 1: rate of change in UPDRS, weeks 12-36, 1 mg/day - placebo",[2],−0.03 UPDRS units/wk
same,"Secondary Endpoint: change in total UPDRS from baseline to final visit in phase I, 1 mg/day - placebo",[2],−2.34
same,"Primary 1: rate of change in UPDRS, weeks 12-36, 1 mg/day - placebo",all subjects,−0.05±0.02 UPDRS units/wk and −0.05 UPDRS units/wk
same,"Secondary Endpoint: change in total UPDRS from baseline to final visit in phase I, 1 mg/day - placebo",all subjects,−3.01±0.43 and −3.01
same,"Primary 1: rate of change in UPDRS, weeks 12-36",[3],0.14 UPDRS units/wk
same,Secondary Endpoint: change in total UPDRS from baseline to final visit in phase I,[3],0.27
same,"Primary 1: rate of change in UPDRS, weeks 12-36",[4],0.08 UPDRS units/wk
same,Secondary Endpoint: change in total UPDRS from baseline to final visit in phase I,[4],1.40
same,"Change from baseline to week 72 in Total-UPDRS, early- vs delayed-start, Estimate","rasagiline 1 mg/day, Completers (n = 409), MMRM (week 48-72)",−1.6
same,"Change from baseline to week 72 in Total-UPDRS, early- vs delayed-start, Estimate","rasagiline 1 mg/day, ITT cohort (observed data), MMRM (weeks 12-72)",−1.7
same,"Change from baseline to week 72 in Total-UPDRS, early- vs delayed-start, Estimate","rasagiline 1 mg/day, Imputed - primary study cohort, Imputation by means of the delayed-start group (week 48-72)",−1.2
same,"Change from baseline to week 72 in Total-UPDRS, early- vs delayed-start, Estimate","rasagiline 1 mg/day, Imputed - primary study cohort, Multiple imputation (week 48-72)",−1.8
same,"Change from baseline to week 72 in Total-UPDRS, early- vs delayed-start, Estimate","rasagiline 1 mg/day, Per protocol (n = 405), MMRM (week 48-72)",−1.6
same,"Change from baseline to week 72 in Total-UPDRS, early- vs delayed-start, Estimate","rasagiline 1 mg/day, Primary study cohort (n = 489), MMRM (week 48-72)",−1.7
same,"Change from baseline to week 72 in Total-UPDRS, early- vs delayed-start, Estimate","rasagiline 1 mg/day, Primary study cohort, ANCOVA with LOCF",−1.7
same,"Change from baseline to week 72 in Total-UPDRS, early- vs delayed-start, Estimate","rasagiline 1 mg/day, Primary study cohort, MMRM, average change from baseline across weeks 48-72",−1.6
same,"Primary 1: rate of change in UPDRS, weeks 12-36",[5],0.09 UPDRS units/wk
same,Secondary Endpoint: change in total UPDRS from baseline to final visit in phase I,[5],1.26
same,outcome of the primary analysis (three hierarchal endpoints),[5],met all three primary analysis endpoints
same,"Primary 1: rate of change in UPDRS, weeks 12-36",[6],0.09±0.02 UPDRS units/wk
same,outcome of the primary analysis (three hierarchal endpoints),[6],met all endpoints
same,Primary 2: estimated change in total UPDRS from baseline to week 72,[7],5.09
same,"Primary 3: rate of change in UPDRS, weeks 48-72",[7],0.137 UPDRS units/wk
same,Primary 2: estimated change in total UPDRS from baseline to week 72,[8],2.60
same,"Primary 3: rate if change in UPDRS, weeks 48-72",[8],0.05 UPDRS units/wk
same,Primary 2: estimated change in total UPDRS from baseline to week 72,[9],3.11
same,"Primary 3: rate of change in UPDRS, weeks 48-72",[9],0.065 UPDRS units/wk
same,Primary 2: estimated change in total UPDRS from baseline to week 72,"rasagiline 2 mg/day delayed-start, all subjects, listed as Rasagiline",3.11±0.5
same,"Primary 2: estimated change in total UPDRS from baseline to week 72, early-start-delayed-start",[10],−3.63±1.72 and −3.63
same,"Primary 3: rate of change in UPDRS, weeks 48-72, early-start-delayed start",[10],−0.03 UPDRS units/wk
same,"Primary 2: estimated change in total UPDRS from baseline to week 72, early-start-delayed-start",[11],1.10
same,"Primary 3: rate if change in UPDRS, weeks 48-72, early-start-delayed start",[11],0.05 UPDRS units/wk
same,"Primary 2: estimated change in total UPDRS from baseline to week 72, early-start-delayed-start","rasagiline 2 mg/day early-start minus delayed-start, all subjects",0.36±0.68 and 0.36
same,"Primary 3: rate of change in UPDRS, weeks 48-72, early-start-delayed start","rasagiline 2 mg/day early-start minus delayed-start, all subjects, non-inferiority margin 0.15",0.03 UPDRS units/wk
same,Primary 2: estimated change in total UPDRS from baseline to week 72,[12],1.46
same,"Primary 3: rate of change in UPDRS, weeks 48-72",[12],0.106 UPDRS units/wk
same,Primary 2: estimated change in total UPDRS from baseline to week 72,[13],3.70
same,"Primary 3: rate if change in UPDRS, weeks 48-72",[13],0.09 UPDRS units/wk
same,Primary 2: estimated change in total UPDRS from baseline to week 72,[14],3.47
same,"Primary 3: rate of change in UPDRS, weeks 48-72",[14],0.094 UPDRS units/wk
same,Primary 2: estimated change in total UPDRS from baseline to week 72,"rasagiline 2 mg/day early-start, all subjects, listed as Rasagiline",3.47±0.5
same,"Primary 1: rate of change in UPDRS, weeks 12-36, 2 mg/day - placebo",[1],−0.20 UPDRS units/wk
same,"Secondary Endpoint: change in total UPDRS from baseline to final visit in phase I, 2 mg/day - placebo",[1],−7.13
same,"Primary 1: rate of change in UPDRS, weeks 12-36, 2 mg/day - placebo",[2],−0.03 UPDRS units/wk
same,"Secondary Endpoint: change in total UPDRS from baseline to final visit in phase I, 2 mg/day - placebo",[2],−2.16
same,"Primary 1: rate of change in UPDRS, weeks 12-36, 2 mg/day - placebo",all subjects,−0.07±0.02 UPDRS units/wk and −0.07 UPDRS units/wk
same,"Secondary Endpoint: change in total UPDRS from baseline to final visit in phase I, 2 mg/day - placebo",all subjects,−3.15±0.43 and −3.15
same,"Primary 1: rate of change in UPDRS, weeks 12-36",[15],0.05 UPDRS units/wk
same,Secondary Endpoint: change in total UPDRS from baseline to final visit in phase I,[15],−0.43
same,"Primary 1: rate of change in UPDRS, weeks 12-36",[16],0.07 UPDRS units/wk
same,Secondary Endpoint: change in total UPDRS from baseline to final visit in phase I,[16],1.58
same,"Primary 1: rate of change in UPDRS, weeks 12-36",[17],0.07 UPDRS units/wk
same,Secondary Endpoint: change in total UPDRS from baseline to final visit in phase I,[17],1.11
same,outcome of the primary analysis (three hierarchal endpoints),[17],did not meet all three endpoints
same,outcome of the primary analysis (three hierarchal endpoints),"rasagiline 2 mg/day, all subjects, listed as Rasagiline",did not meet all endpoints
